Data on four molecules can be found in patent US11395847B2, “Acylated GLP-1/GLP-2 dual agonists” (Zealand Pharma A/S, priority 2016, dated 2022).

Where two headings read alike, the source gives them in different places. Where a SMILES comes first, the peptide text is derived from it.

In one series the target is T1, human GLP-1 receptor (Homo sapiens, UniProt P43220).
T1 construct: expressed in transfected cells
Kind of series: GLP-1 receptor potency assay (cAMP ALPHASCREEN, HEK293 cells stably expressing GLP-1 R). It is filed as cell-based. The settings on record: cAMP response, HEK293 cells expressing human GLP-1 R. The source says:
One useful in vitro assay for measuring GLP-1 and GLP-2 receptor activity is quantitation of cAMP, i.e. 3′-5′-cyclic adenosine monophosphate, which is a second messenger essential in many biological processes, and one of the most ubiquitous mechanisms for regulating cellular functions.
The cDNA encoding the human glucagon-like peptide 1 receptor (GLP-1 R) (primary accession number P43220) was cloned from the cDNA BC112126 (MGC:138331/IMAGE:8327594). The DNA encoding the GLP-1-R was amplified by PCR using primers encoding terminal restriction sites for subcloning. The 5′-end primers additionally encoded a near Kozak consensus sequence to ensure efficient translation. […] The PCR products encoding the GLP-1-R were subcloned into a mammalian expression vector containing a neomycin (G418) resistance marker. The mammalian expression vectors encoding the GLP-1-R were transfected into HEK293 cells by a standard calcium phosphate transfection method. 48 hours post-transfection, cells were seeded for limited dilution cloning and selected with 1 mg/ml G418 in the culture medium. Following 3 weeks in G418 selection clones were picked and tested in a functional GLP-1 receptor potency assay as described below.
The cAMP ALPHASCREEN® assay from Perkin Elmer was used to quantitate the cAMP response to activation of the GLP1 and GLP2 receptor, respectively. […] Data from test compounds eliciting an increase in the intracellular level of cAMP were normalized relative to the positive and negative control (vehicle) to calculate the EC50 and maximal response from the concentration response curve.

Series [1] can be described thus: Solubility assessment (turbidity absorbance at 325 nm). It is filed as physicochemical. A digest of the protocol:
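Peptide stock at 2 mg/ml in water at pH 2.5 diluted 1:1 into 100 mM acetate (pH 4.0, 5.0), histidine (pH 6.0, 7.0) or phosphate (pH 6.0, 7.0, 7.5) buffer. Absorbance at 280 and 325 nm read at ambient temperature (typically 25 °C), single samples (n=1).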

A further series deals with T2, human GLP-2 receptor (Homo sapiens, UniProt O95838, D470N).
T2 construct: expressed in transfected cells
T2 sequence (O95838 1-553 D470N): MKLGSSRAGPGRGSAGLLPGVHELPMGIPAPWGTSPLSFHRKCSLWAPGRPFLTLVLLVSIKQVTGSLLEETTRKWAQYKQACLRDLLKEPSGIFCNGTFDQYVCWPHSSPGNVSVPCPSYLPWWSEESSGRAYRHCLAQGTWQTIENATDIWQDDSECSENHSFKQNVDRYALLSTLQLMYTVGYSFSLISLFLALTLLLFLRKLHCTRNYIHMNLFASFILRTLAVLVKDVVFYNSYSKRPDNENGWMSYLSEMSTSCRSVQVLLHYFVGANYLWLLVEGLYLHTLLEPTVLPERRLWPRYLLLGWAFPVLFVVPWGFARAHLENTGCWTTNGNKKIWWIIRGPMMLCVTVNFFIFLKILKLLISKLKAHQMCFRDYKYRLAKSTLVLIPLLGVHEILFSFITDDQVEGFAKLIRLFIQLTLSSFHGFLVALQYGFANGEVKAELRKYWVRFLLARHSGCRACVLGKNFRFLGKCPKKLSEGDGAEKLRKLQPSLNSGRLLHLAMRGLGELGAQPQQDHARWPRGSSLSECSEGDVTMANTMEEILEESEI
Put plainly: GLP-2 receptor potency assay (cAMP ALPHASCREEN, HEK293 cells stably expressing GLP-2 R). The series is classed as cell-based. The following applies: cAMP response, HEK293 cells expressing human GLP-2 R; read-out: EC50 GLP-2. A digest of the protocol:
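HEK293 clones stably transfected with the human GLP-2 receptor, selected with G418, were used. Intracellular cAMP was quantified by AlphaScreen. Responses were normalised to positive and vehicle controls, and EC50 and maximal response were taken from concentration-response curves.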

Series [2] is described as follows: Chemical stability (RP-HPLC normalized purity after incubation at 40° C.). The following applies: 14-day incubation, 0.2 mg/ml, normalized purity (area-%); for pH 7 normalized stability: pH 7, 40° C. It is filed as physicochemical. An outline of the steps:
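Peptide at 0.2 mg/ml final in water adjusted to pH 6, 7, 7.5 or 9, incubated at 40° C for 14 days. Purity measured as main-peak area-% by C18 RP-HPLC (acetonitrile/TFA/water gradient, UV 220 nm) and normalized to T=0 set at 100 for each pH.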

The mark [3] stands for this setting: 100 mM acetate buffer pH 4.0, ambient temperature, read-out: Solubility Acetate buffer pH 4.
Setting [4] is: 100 mM acetate buffer pH 5.0, ambient temperature, read-out: Solubility Acetate buffer pH 5.
Setting [5] is: 100 mM histidine buffer pH 6.0, ambient temperature, read-out: Solubility Histidine buffer pH 6.
Where [6] appears, read: 100 mM histidine buffer pH 7.0, ambient temperature, read-out: Solubility Histidine buffer pH 7.
The mark [7] stands for this setting: 100 mM phosphate buffer pH 6.0, ambient temperature, read-out: Solubility Phosphate buffer pH 6.
The mark [8] stands for this setting: 100 mM phosphate buffer pH 7.0, ambient temperature, read-out: Solubility Phosphate buffer pH 7.
The mark [9] stands for this setting: 100 mM phosphate buffer pH 7.5, ambient temperature, read-out: Solubility Phosphate buffer pH 7.5.

T1 sequence (P43220 24-463): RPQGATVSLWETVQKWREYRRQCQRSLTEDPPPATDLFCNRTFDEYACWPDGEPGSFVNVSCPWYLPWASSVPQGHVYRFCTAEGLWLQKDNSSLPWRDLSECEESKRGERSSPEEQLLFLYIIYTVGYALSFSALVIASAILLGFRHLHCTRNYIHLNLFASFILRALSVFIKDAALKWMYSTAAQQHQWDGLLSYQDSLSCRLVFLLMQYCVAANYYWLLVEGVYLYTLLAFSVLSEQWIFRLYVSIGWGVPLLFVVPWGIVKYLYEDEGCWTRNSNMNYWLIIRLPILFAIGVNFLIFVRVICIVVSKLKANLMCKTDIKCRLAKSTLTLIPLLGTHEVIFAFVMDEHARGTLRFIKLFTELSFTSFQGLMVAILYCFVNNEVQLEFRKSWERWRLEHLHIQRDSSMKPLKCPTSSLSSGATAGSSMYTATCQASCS

As for `CC[C@H](C)[C@H](NC(=O)[C@H](CC(C)C)NC(=O)[C@H](Cc1c[nH]c2ccccc12)NC(=O)[C@H](C)NC(=O)[C@@H](NC(=O)[C@H](Cc1ccccc1)NC(=O)[C@H](CC(=O)O)NC(=O)[C@H](CCCNC(=N)N)NC(=O)[C@H](C)NC(=O)[C@H](C)NC(=O)[C@H](CC(C)C)NC(=O)[C@H](CCCCNC(=O)CC[C@H](NC(=O)CCCCCCCCCCCCCCCCC(=O)O)C(=O)O)NC(=O)[C@H](CC(=O)O)NC(=O)[C@H](CC(C)C)NC(=O)[C@@H](NC(=O)[C@@H](NC(=O)[C@H](C)NC(=O)[C@H](CC(C)C)NC(=O)[C@H](CCC(=O)O)NC(=O)[C@H](CO)NC(=O)[C@@H](NC(=O)[C@H](Cc1ccccc1)NC(=O)[C@@H](NC(=O)CNC(=O)[C@H](CCC(=O)O)NC(=O)C(C)(C)NC(=O)[C@@H](N)Cc1c[nH]cn1)[C@@H](C)O)[C@@H](C)O)[C@@H](C)O)[C@@H](C)CC)[C@@H](C)CC)C(=O)N[C@@H](C)C(=O)N[C@@H](Cc1c[nH]cn1)C(=O)N[C@@H](CCCCN)C(=O)N[C@H](C(=O)N[C@H](C(=O)N[C@@H](CC(=O)O)C(=O)O)[C@@H](C)O)[C@@H](C)CC` [Compound 15] (HELM PEPTIDE1{H.[Aib].E.G.T.F.T.S.E.L.A.T.I.L.D.K.L.A.A.R.D.F.I.A.W.L.I.A.H.K.I.T.D}|PEPTIDE2{[O=C(O)CCCCCCCCCCCCCCCCC(=O)[*:2]].[gGlu]}$PEPTIDE1,PEPTIDE2,16:R3-2:R2$$$V2.0), the EC50 (as a rule, the concentration needed to bring the measured effect to its halfway point) at human GLP-1 receptor worked out at 0.25 nM.

As to `CC[C@H](C)[C@H](NC(=O)[C@H](CC(C)C)NC(=O)[C@H](Cc1c[nH]c2ccccc12)NC(=O)[C@H](C)NC(=O)[C@@H](NC(=O)[C@H](Cc1ccccc1)NC(=O)[C@H](CC(=O)O)NC(=O)[C@H](CCCNC(=N)N)NC(=O)[C@H](C)NC(=O)[C@H](C)NC(=O)[C@H](CCC(N)=O)NC(=O)[C@H](CCCCNC(=O)CC[C@H](NC(=O)CCCCCCCCCCCCCCCCC(=O)O)C(=O)O)NC(=O)[C@H](CC(=O)O)NC(=O)[C@H](CC(C)C)NC(=O)[C@@H](NC(=O)[C@@H](NC(=O)[C@H](C)NC(=O)[C@H](CC(C)C)NC(=O)[C@H](CCC(=O)O)NC(=O)[C@H](CO)NC(=O)[C@H](CO)NC(=O)[C@H](Cc1ccccc1)NC(=O)[C@@H](NC(=O)CNC(=O)[C@H](CCC(=O)O)NC(=O)C(C)(C)NC(=O)[C@@H](N)Cc1c[nH]cn1)[C@@H](C)O)[C@@H](C)O)[C@@H](C)CC)[C@@H](C)CC)C(=O)N[C@@H](C)C(=O)N[C@@H](Cc1c[nH]cn1)C(=O)N[C@@H](CCCCN)C(=O)N[C@H](C(=O)N[C@H](C(=O)N[C@@H](CC(=O)O)C(=O)O)[C@@H](C)O)[C@@H](C)CC` [Compound 21] (HELM PEPTIDE1{H.[Aib].E.G.T.F.S.S.E.L.A.T.I.L.D.K.Q.A.A.R.D.F.I.A.W.L.I.A.H.K.I.T.D}|PEPTIDE2{[O=C(O)CCCCCCCCCCCCCCCCC(=O)[*:2]].[gGlu]}$PEPTIDE1,PEPTIDE2,16:R3-2:R2$$$V2.0), on human GLP-1 receptor, the midpoint of the response, the EC50, lay at 1.8 nM.

As to `CC[C@H](C)[C@H](NC(=O)[C@H](Cc1ccccc1)NC(=O)[C@H](CC(=O)O)NC(=O)[C@H](CCCNC(=N)N)NC(=O)[C@H](C)NC(=O)[C@H](C)NC(=O)[C@H](CCC(N)=O)NC(=O)[C@H](CCCCNC(=O)CC[C@H](NC(=O)CCCCCCCCCCCCCCCCC(=O)O)C(=O)O)NC(=O)[C@H](CC(=O)O)NC(=O)[C@H](CC(C)C)NC(=O)[C@@H](NC(=O)[C@@H](NC(=O)[C@H](C)NC(=O)[C@H](CC(C)C)NC(=O)[C@H](CCC(=O)O)NC(=O)[C@H](CO)NC(=O)[C@@H](NC(=O)[C@H](Cc1ccccc1)NC(=O)[C@H](CO)NC(=O)CNC(=O)[C@H](CCC(=O)O)NC(=O)C(C)(C)NC(=O)[C@@H](N)Cc1c[nH]cn1)[C@@H](C)O)[C@@H](C)O)[C@@H](C)CC)C(=O)N[C@@H](C)C(=O)N[C@@H](Cc1c[nH]c2ccccc12)C(=O)N[C@@H](CC(C)C)C(=O)N[C@H](C(=O)N[C@@H](CCC(=O)O)C(=O)N[C@@H](Cc1c[nH]cn1)C(=O)N[C@@H](CCCCN)C(=O)N[C@H](C(=O)N[C@H](C(=O)N[C@@H](CC(=O)O)C(=O)O)[C@@H](C)O)[C@@H](C)CC)[C@@H](C)CC` [Compound 24] (HELM PEPTIDE1{H.[Aib].E.G.S.F.T.S.E.L.A.T.I.L.D.K.Q.A.A.R.D.F.I.A.W.L.I.E.H.K.I.T.D}|PEPTIDE2{[O=C(O)CCCCCCCCCCCCCCCCC(=O)[*:2]].[gGlu]}$PEPTIDE1,PEPTIDE2,16:R3-2:R2$$$V2.0), the solubility (commonly how much of the substance goes into solution per volume) in series [1] (setting [3]) is below 1000 µg/mL; in series [1] (setting [4]), below 1000 µg/mL; in series [1] (setting [5]) it was at least 1000 µg/mL; in series [1] (setting [6]), at least 1000 µg/mL; in series [1] (setting [7]), at least 1000 µg/mL; in series [1] (setting [8]), at least 1000 µg/mL. Besides, the solubility in series [1] (setting [9]) was at least 1000 µg/mL. In addition, the EC50 at human GLP-2 receptor turned out to be 0.17 nM. Further, the “pH 6 normalized stability” value in series [2] (pH 6, 40° C.) is recorded as “B (>80% stability)”. Besides, the “pH 7 normalized stability” value in series [2] is recorded as “A (>90% normalised stability)”.

As for `CC[C@H](C)[C@H](NC(=O)[C@H](Cc1ccccc1)NC(=O)[C@H](CC(=O)O)NC(=O)[C@H](CCCNC(=N)N)NC(=O)[C@H](C)NC(=O)[C@H](C)NC(=O)[C@H](CCC(N)=O)NC(=O)[C@H](CCCCNC(=O)CC[C@H](NC(=O)CCCCCCCCCCCCCCCCC(=O)O)C(=O)O)NC(=O)[C@H](CC(=O)O)NC(=O)[C@H](CC(C)C)NC(=O)[C@@H](NC(=O)[C@@H](NC(=O)[C@H](C)NC(=O)[C@H](CC(C)C)NC(=O)[C@H](CCC(=O)O)NC(=O)[C@H](CO)NC(=O)[C@@H](NC(=O)[C@H](Cc1ccccc1)NC(=O)[C@@H](NC(=O)CNC(=O)[C@H](CCC(=O)O)NC(=O)C(C)(C)NC(=O)[C@@H](N)Cc1c[nH]cn1)[C@@H](C)O)[C@@H](C)O)[C@@H](C)O)[C@@H](C)CC)C(=O)N[C@@H](C)C(=O)N[C@@H](Cc1c[nH]c2ccccc12)C(=O)N[C@@H](CC(C)C)C(=O)N[C@H](C(=O)N[C@@H](CCC(=O)O)C(=O)N[C@@H](Cc1c[nH]cn1)C(=O)N[C@@H](CCCCN)C(=O)N[C@H](C(=O)N[C@H](C(=O)N[C@@H](CC(=O)O)C(=O)O)[C@@H](C)O)[C@@H](C)CC)[C@@H](C)CC` [Compound 25] (HELM PEPTIDE1{H.[Aib].E.G.T.F.T.S.E.L.A.T.I.L.D.K.Q.A.A.R.D.F.I.A.W.L.I.E.H.K.I.T.D}|PEPTIDE2{[O=C(O)CCCCCCCCCCCCCCCCC(=O)[*:2]].[gGlu]}$PEPTIDE1,PEPTIDE2,16:R3-2:R2$$$V2.0), the solubility in series [1] (setting [3]) is below 1000 µg/mL; in series [1] (setting [4]), below 1000 µg/mL; in series [1] (setting [5]) it was at least 1000 µg/mL; in series [1] (setting [6]), at least 1000 µg/mL; in series [1] (setting [7]) it was at least 1000 µg/mL; in series [1] (setting [8]) it was at least 1000 µg/mL. In series [1] (setting [9]), the solubility was at least 1000 µg/mL. For the same molecule, on human GLP-2 receptor, the EC50 was found to be 0.33 nM. In series [2], the “pH 7 normalized stability” value was “A (>90% normalised stability)”.
